Columns and labels:
[1] = target: KRas Q61H (Homo sapiens, UniProt P01116, Q61H); assay: KRas binding assay (TR-FRET displacement), KRas Q61H; settings: single point, 10 nM compound
[2] = system: HCT116 cells; assay: Inhibition of KRas-mediated phosphorylation of ERK (Cisbio HTRF pERK), HCT116 cells; type: cell-based; settings: Homo sapiens, HCT-116, 3 h, 3 hr compound incubation, Cisbio pERK HTRF
[3] = system: H358 cells; assay: Inhibition of KRas-mediated phosphorylation of ERK (Cisbio HTRF pERK), H358 cells; type: cell-based; settings: Homo sapiens; for IC50: NCI-H358, 3 h, 3 hr compound incubation, Cisbio pERK HTRF; for inhibition at 0.1 µM: NCI-H358, single point at 100 nM, 3 hrs compound incubation
[4] = system: MKN1 cells; assay: Inhibition of KRas-mediated phosphorylation of ERK (Cisbio HTRF pERK), MKN1 cells; type: cell-based; settings: Homo sapiens, MKN-1, 3 hour compound incubation, Cisbio pERK HTRF
Procedure, shortened: (§1)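 Cells were seeded on day 1 at 6,000 per well in RPMI containing 10% FBS before compound treatment and phospho-ERK detection.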

[5] = target: KRas G12D (Homo sapiens, UniProt P01116, G12D); assay: biochemical; settings: Binding to KRas (IC50 nM) G12D, TR-FRET displacement, KRas G12D
[6] = system: A549 cells; assay: Inhibition of KRas-mediated phosphorylation of ERK (Cisbio HTRF pERK), A549 cells; type: cell-based; settings: Homo sapiens; for IC50: A549, 3 h, 3 hr compound incubation, Cisbio pERK HTRF; for inhibition at 0.1 µM: single point at 100 nM, 3 hrs compound incubation
[7] = target: KRas G12S (Homo sapiens, UniProt P01116, G12S); type: binding; settings: single point, 10 nM compound, read-out: Binding to KRas (% inhibition at 10 nM) G12S
[8] = system: ASPC1 cells; assay: Inhibition of KRas-mediated phosphorylation of ERK (Cisbio HTRF pERK), ASPC1 cells; type: cell-based; settings: Homo sapiens, AsPC-1 cells; for IC50: ASPC1, 3 h, 3 hr compound incubation, Cisbio pERK HTRF; for inhibition at 0.1 µM: ASPC1, single point at 100 nM, 3 hrs compound incubation
[9] = target: KRas G12A (Homo sapiens, UniProt P01116, G12A); type: binding; settings: single point, 10 nM compound, read-out: Binding to KRas (% inhibition at 10 nM) G12A
[10] = target: KRas G13D (Homo sapiens, UniProt P01116, G13D); type: binding; settings: single point, 10 nM compound, read-out: Binding to KRas (% inhibition at 10 nM) G13D
[11] = target: KRas G12C (Homo sapiens, UniProt P01116, G12C); type: binding; settings: single point, 10 nM compound, read-out: Binding to KRas (% inhibition at 10 nM) G12C
[12] = target: KRas G12R (Homo sapiens, UniProt P01116, G12R); assay: biochemical; settings: Binding to KRas (IC50 nM) G12R, TR-FRET displacement, KRas G12R
[13] = system: H727 cells; assay: Inhibition of KRas-mediated phosphorylation of ERK (Cisbio HTRF pERK), H727 cells; type: cell-based; settings: Homo sapiens; for IC50: NCI-H727, 3 h, 3 hr compound incubation, Cisbio pERK HTRF; for inhibition at 0.1 µM: NCI-H727, single point at 100 nM, 3 hrs compound incubation
[14] = system: H460 cells; assay: Inhibition of KRas-mediated phosphorylation of ERK (Cisbio HTRF pERK), H460 cells; type: cell-based; settings: Homo sapiens, NCI-H460, 3 h, 3 hr compound incubation, Cisbio pERK HTRF
[15] = target: KRas WT (Homo sapiens, UniProt P01116); assay: KRas binding assay (TR-FRET displacement), KRas WT; settings: single point, 10 nM compound
[16] = target: KRas G12V (Homo sapiens, UniProt P01116, G12V); assay: biochemical; settings: Binding to KRas (IC50 nM) G12V, TR-FRET displacement, KRas G12V
[17] = system: PSN1 cells; assay: Inhibition of KRas-mediated phosphorylation of ERK (Cisbio HTRF pERK), PSN1 cells; type: cell-based; settings: Homo sapiens, PSN1, 3 h, 3 hour compound incubation, Cisbio pERK HTRF
Procedure, shortened: as §1

Sequence of KRas WT (P01116 1-169 isoform P01116-2): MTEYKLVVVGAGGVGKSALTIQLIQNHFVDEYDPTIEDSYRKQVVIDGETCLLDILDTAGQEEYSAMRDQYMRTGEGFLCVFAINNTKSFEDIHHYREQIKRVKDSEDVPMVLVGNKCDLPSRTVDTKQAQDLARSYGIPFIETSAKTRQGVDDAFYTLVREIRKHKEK
Sequence of KRas Q61H (P01116 1-169 isoform P01116-2 Q61H): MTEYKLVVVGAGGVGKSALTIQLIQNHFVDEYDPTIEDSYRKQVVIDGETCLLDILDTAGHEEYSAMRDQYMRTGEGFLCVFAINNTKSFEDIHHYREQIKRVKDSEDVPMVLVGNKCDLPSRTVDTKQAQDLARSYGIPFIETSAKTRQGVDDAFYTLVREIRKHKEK
Sequence of KRas G12S (P01116 1-169 isoform P01116-2 G12S): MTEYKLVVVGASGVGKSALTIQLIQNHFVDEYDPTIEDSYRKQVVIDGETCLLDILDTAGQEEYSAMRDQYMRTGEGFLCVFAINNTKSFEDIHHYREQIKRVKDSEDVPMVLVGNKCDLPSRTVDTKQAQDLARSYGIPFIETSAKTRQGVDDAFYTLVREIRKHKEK
Sequence of KRas G12D (P01116 1-169 isoform P01116-2 G12D): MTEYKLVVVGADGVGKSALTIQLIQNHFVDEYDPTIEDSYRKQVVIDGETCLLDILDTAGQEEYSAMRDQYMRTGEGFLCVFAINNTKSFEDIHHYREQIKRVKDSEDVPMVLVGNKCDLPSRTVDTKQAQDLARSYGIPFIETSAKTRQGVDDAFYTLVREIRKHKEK
Sequence of KRas G12C (P01116 1-169 isoform P01116-2 G12C): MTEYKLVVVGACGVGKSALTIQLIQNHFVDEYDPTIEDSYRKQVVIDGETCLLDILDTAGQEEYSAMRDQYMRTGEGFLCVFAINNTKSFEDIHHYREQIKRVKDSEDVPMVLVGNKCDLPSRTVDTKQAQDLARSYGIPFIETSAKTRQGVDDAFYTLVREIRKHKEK
Sequence of KRas G13D (P01116 1-169 isoform P01116-2 G13D): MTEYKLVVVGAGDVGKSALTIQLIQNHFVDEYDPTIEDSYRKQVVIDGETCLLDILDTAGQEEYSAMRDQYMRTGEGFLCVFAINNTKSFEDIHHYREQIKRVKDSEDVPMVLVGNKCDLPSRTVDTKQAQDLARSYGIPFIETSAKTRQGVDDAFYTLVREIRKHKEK
Sequence of KRas G12A (P01116 1-169 isoform P01116-2 G12A): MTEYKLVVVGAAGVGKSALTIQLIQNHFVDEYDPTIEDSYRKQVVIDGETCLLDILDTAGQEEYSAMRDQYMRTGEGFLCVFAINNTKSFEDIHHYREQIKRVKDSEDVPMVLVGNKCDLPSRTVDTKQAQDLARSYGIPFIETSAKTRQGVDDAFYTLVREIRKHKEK
Sequence of KRas G12V (P01116 1-169 isoform P01116-2 G12V): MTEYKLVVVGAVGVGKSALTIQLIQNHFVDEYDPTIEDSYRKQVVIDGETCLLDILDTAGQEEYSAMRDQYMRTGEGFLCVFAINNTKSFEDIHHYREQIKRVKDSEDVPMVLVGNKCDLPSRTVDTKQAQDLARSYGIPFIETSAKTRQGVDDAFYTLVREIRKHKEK
Sequence of KRas G12R (P01116 1-169 isoform P01116-2 G12R): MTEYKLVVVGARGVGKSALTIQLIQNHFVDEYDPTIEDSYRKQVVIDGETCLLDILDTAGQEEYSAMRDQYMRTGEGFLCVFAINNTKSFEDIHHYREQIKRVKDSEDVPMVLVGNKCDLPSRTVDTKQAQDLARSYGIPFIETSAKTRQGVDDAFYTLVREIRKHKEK

Row | SMILES | inhibition at 0.01 µM [1] [%] | IC50 [2] [nM] | IC50 [3] [nM] | inhibition at 0.1 µM [3] [%] | IC50 [4] [nM] | IC50 [5] [nM] | IC50 [6] [nM] | inhibition at 0.1 µM [6] [%] | inhibition at 0.01 µM [7] [%] | IC50 [8] [nM] | inhibition at 0.1 µM [8] [%] | inhibition at 0.01 µM [9] [%] | inhibition at 0.01 µM [10] [%] | inhibition at 0.01 µM [11] [%] | IC50 [12] [nM] | IC50 [13] [nM] | IC50 [14] [nM] | inhibition at 0.01 µM [15] [%] | IC50 [16] [nM] | IC50 [17] [nM] | further results
1 | CCc1c(F)ccc2cc(O)cc(N3CCc4c(nc(OC[C@@]56CCCN5C[C@H](F)C6)nc4N4CCCn5nc(C(=O)N(C)C6CC6)cc5C4)C3)c12 [Example 383, N-cyclopropyl-5-(7-(8-ethyl-7-fluoro-3-hydroxynaphthalen-1-yl)-2-(((2R,7aS)-2-fluorohexahydro-1H-pyrrolizin-7a-yl)methoxy)-5,6,7,8-tetrahydropyrido[3,4-d]pyrimidin-4-yl)-N-methyl-5,6,7,8-tetrahydro-4H-pyrazolo[1,5-a][1,4]diazepine-2-carboxamide] | 98 | 73 | 2 | 98 | 7.8 | < 2 | 5 | 90 | 99 | 1 | 97 | 96 | 97 | 99 | < 2 | 2 | 13 | 97 | < 2 | 3680 | inhibition at 0.1 µM [13]: 85%
2 | CCc1c(F)ccc2cc(O)cc(N3CCc4c(nc(OC[C@@]56CCCN5C[C@H](F)C6)nc4N4CCCn5nc(C(=O)NC6CC6)cc5C4)C3)c12 [Example 384, N-cyclopropyl-5-(7-(8-ethyl-7-fluoro-3-hydroxynaphthalen-1-yl)-2-(((2R,7aS)-2-fluorohexahydro-1H-pyrrolizin-7a-yl)methoxy)-5,6,7,8-tetrahydropyrido[3,4-d]pyrimidin-4-yl)-5,6,7,8-tetrahydro-4H-pyrazolo[1,5-a][1,4]diazepine-2-carboxamide] | 95 | 91 | 5 | 100 | 9 | < 2 | 17 | 65 | 98 | 2 | 98 | 91 | 93 | 99 | < 2 | 6 | 25 | 94 | < 2 | 3880 | inhibition at 0.1 µM [13]: 79%
3 | CCc1c(F)ccc2cc(O)cc(N3CCc4c(nc(OC[C@@]56CCCN5C[C@H](F)C6)nc4N4CCCn5nc(C(=O)N(C)C6CCC6)cc5C4)C3)c12 [Example 385, N-cyclobutyl-5-(7-(8-ethyl-7-fluoro-3-hydroxynaphthalen-1-yl)-2-(((2R,7aS)-2-fluorohexahydro-1H-pyrrolizin-7a-yl)methoxy)-5,6,7,8-tetrahydropyrido[3,4-d]pyrimidin-4-yl)-N-methyl-56,7,8-tetrahydro-4H-pyrazolo[1,5-a][1,4]diazepine-2-carboxamide] | 96 | 85 | 2 | 94 | 14.4 | < 2 | 15 | 74 | 98 | 3 | – | 96 | 94 | 98 | < 2 | 5 | 22 | 95 | < 2 | 3980 | –
4 | CCc1c(F)ccc2cc(O)cc(N3CCc4c(nc(OC[C@@]56CCCN5C[C@H](F)C6)nc4N4CCCn5nc(C(=O)NC(C)C)c(Cl)c5C4)C3)c12 [Example 386, 3-chloro-5-(7-(8-ethyl-7-fluoro-3-hydroxynaphthalen-1-yl)-2-(((2R,7aS)-2-fluorotetrahydro-1H-pyrrolizin-7a(5H)-yl)methoxy)-5,6,7,8-tetrahydropyrido[3,4-d]pyrimidin-4-yl)-N-isopropyl-5,6,7,8-tetrahydro-4H-pyrazolo[1,5-a][1,4]diazepine-2-carboxamide] | 97 | 39 | 1 | 91 | 11.3 | < 2 | 4 | 88 | 98 | 1 | – | 92 | 96 | 99 | < 2 | 2 | 19 | 95 | < 2 | 2710 | –
5 | CCc1c(F)ccc2cc(O)cc(N3CCc4c(nc(OC[C@@]56CCCN5C[C@H](F)C6)nc4N4CCCn5nc(C(=O)N(C)C)c(Br)c5C4)C3)c12 [Example 387, 3-bromo-5-(7-(8-ethyl-7-fluoro-3-hydroxynaphthalen-1-yl)-2-(((2R,7aS)-2-fluorohexahydro-1H-pyrrolizin-7a-yl)methoxy)-5,6,7,8-tetrahydropyrido[3,4-d]pyrimidin-4-yl)-N,N-dimethyl-5,6,7,8-tetrahydro-4H-pyrazolo[1,5-a][1,4]diazepine-2-carboxamide] | 99 | 14 | 1 | 100 | 3 | < 2 | 1 | 89 | 100 | 1 | 99 | 99 | 99 | 100 | < 2 | 2 | 7 | 99 | < 2 | 1800 | inhibition at 0.1 µM [13]: 85%
6 | CCc1c(F)ccc2cc(O)cc(N3CCc4c(nc(OC[C@@]56CCCN5C[C@H](F)C6)nc4N4CCCn5nc(C(=O)NC)c(Cl)c5C4)C3)c12 [Example 388, 3-chloro-5-(7-(8-ethyl-7-fluoro-3-hydroxynaphthalen-1-yl)-2-(((2R,7aS)-2-fluorohexahydro-1H-pyrrolizin-7a-yl)methoxy)-5,6,7,8-tetrahydropyrido[3,4-d]pyrimidin-4-yl)-N-methyl-5,6,7,8-tetrahydro-4H-pyrazolo[1,5-a][1,4]diazepine-2-carboxamide] | 99 | 42 | 1 | 97 | 8.1 | < 2 | 9 | 79 | 99 | 1 | – | 94 | 98 | 100 | < 2 | 2 | 20 | 98 | < 2 | 2350 | –

Reference: patent publication US20250368649A1, “TETRAHYDROPYRIDOPYRIMIDINE PAN-KRAS INHIBITORS” (Mirati Therapeutics, Inc., priority 2022, published 2025)
